From patent US10954214B2 (Janssen Pharmaceutica NV, priority 2016, dated 2021) come the findings set out here.

Structures are written as SMILES.

Test [1] deals with IL6 secretion by OCI-LY3 ABC-DLBCL cells. In words: Human IL6 Mesoscale assay (OCI-LY3). To be noted: Homo sapiens, 24 h. Type of test: cell-based. The gist of the method:
(§1)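 After 24 h at 37 °C with test compounds (15 μM down to 58.6 nM, 9 twofold steps, 0.3% DMSO), IL6 and IL10 secreted by 100,000 OCI-LY3 or TMD8 cells per well were measured in supernatants with a Mesoscale immunoassay. Data were scaled between DMSO wells (high) and RN486 treatment (low).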

Test [2] deals with IL10 secretion by OCI-LY3 ABC-DLBCL cells. Kind of test: Human IL10 Mesoscale assay (OCI-LY3). To be noted: Homo sapiens, 24 h. In kind it is cell-based. The procedure, abridged: as §1
In test [3] the target is full-length MALT1 protein (Strep-MALT1(1-824)-His) (Homo sapiens (Human), UniProt Q9UDY8). In words: MALT1 Biochemical Protease Assay (Ac-LRSR-AMC substrate). To be noted: 10 nM FL MALT1, 200 μM Ac-LRSR-AMC, 4 h at RT; read-out: MALT1_Biochemical activity (Ac-LRSR-amc) IC50. The gist of the method: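 Fluorescence from AMC release off the quenched LRSR substrate was read after a 4 h reaction at RT. Values were normalised to no-enzyme and uninhibited controls and fitted for IC50 and Hill coefficient.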

The subject of a further test is TMD8 cells. Kind of test: 4-day proliferation assay, TMD8. Type of test: cell-based. To be noted: Homo sapiens, 96 h, 4 days incubation, CellTiterGLO, read-out: Anti-proliferation: TMD-8 IC50. The procedure, abridged:
(§2)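 Each line was plated at 10,000 cells per well for linear growth, with no beta-mercaptoethanol during the assay. OCI-Ly3 cells were below passage 10.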

The subject of the next test is OCI-Ly3 cells. In words: 4-day proliferation assay, OCI-Ly3. Type of test: cell-based, human. To be noted: Homo sapiens, 96 h, 4 days incubation, CellTiterGLO, read-out: Anti-proliferation: OCI-LY-3 IC50. The procedure, abridged:
as §2
Background: Cellular ATP, detected with luciferase, serves as a proxy for viable cell number.

Chain of full-length MALT1 protein (Strep-MALT1(1-824)-His) (Q9UDY8 whole entry): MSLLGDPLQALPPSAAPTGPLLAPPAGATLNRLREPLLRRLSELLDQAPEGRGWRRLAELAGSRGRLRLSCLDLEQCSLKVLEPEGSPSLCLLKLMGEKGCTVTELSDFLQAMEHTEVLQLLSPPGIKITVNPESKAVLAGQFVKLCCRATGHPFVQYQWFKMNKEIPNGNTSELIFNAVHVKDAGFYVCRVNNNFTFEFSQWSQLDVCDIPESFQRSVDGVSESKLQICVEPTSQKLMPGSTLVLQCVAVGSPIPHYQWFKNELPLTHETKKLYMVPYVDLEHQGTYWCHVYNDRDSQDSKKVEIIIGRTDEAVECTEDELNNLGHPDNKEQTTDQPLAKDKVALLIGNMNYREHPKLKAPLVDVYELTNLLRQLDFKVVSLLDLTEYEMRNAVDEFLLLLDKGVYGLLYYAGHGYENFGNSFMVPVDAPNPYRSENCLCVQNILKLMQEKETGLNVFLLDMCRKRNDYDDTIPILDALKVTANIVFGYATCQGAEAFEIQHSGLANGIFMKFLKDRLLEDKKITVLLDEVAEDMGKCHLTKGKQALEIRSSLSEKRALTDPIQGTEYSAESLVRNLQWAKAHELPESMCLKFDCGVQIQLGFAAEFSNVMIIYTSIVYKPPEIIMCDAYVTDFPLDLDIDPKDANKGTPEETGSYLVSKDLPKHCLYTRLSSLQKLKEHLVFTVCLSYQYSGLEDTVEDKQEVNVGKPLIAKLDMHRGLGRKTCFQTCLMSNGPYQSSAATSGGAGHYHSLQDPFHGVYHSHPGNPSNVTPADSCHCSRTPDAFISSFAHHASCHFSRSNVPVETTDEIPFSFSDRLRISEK

`N#Cc1cnn(-c2ncc(NC(=O)c3cnn(-c4cccc5ncccc45)c3C(F)(F)F)cc2Cl)n1` [Cpd 179, N-(5-chloro-6-(4-cyano-2H-1,2,3-triazol-2-yl)pyridin-3-yl)-1-(quinolin-5-yl)-5-(trifluoromethyl)-1H-pyrazole-4-carboxamide]: the IC50 in test [1] was 288 nM; in test [2], 174 nM; in test [3] it was 42 nM; with TMD8 cells, 1950 nM; in the test on OCI-Ly3 cells it was 763 nM.

For `Cn1nc(-c2ncc(NC(=O)c3cnn(-c4cccc5ncccc45)c3C(F)(F)F)cc2C#N)cc1N` [Cpd 181, N-(6-(5-amino-1-methyl-1H-pyrazol-3-yl)-5-cyanopyridin-3-yl)-1-(quinolin-5-yl)-5-(trifluoromethyl)-1H-pyrazole-4-carboxamide], the IC50 in test [1] was 141 nM; in test [2] it was 110 nM; in test [3], 38 nM; in the test with TMD8 cells it was more than 7940 nM; in the test on OCI-Ly3 cells, 1500 nM.

In the case of `Cc1nc(-n2nccn2)c(Cl)cc1NC(=O)c1cnn(-c2cncc3ccccc23)c1C(F)(F)F` [Cpd 191, N-(5-chloro-2-methyl-6-(2H-1,2,3-triazol-2-yl)pyridin-3-yl)-1-(isoquinolin-4-yl)-5-(trifluoromethyl)-1H-pyrazole-4-carboxamide], the IC50 in test [1] worked out at 22 nM; in test [2], 13 nM; in test [3] it was 36 nM; in the test with TMD8 cells it was 912 nM; with OCI-Ly3 cells, 866 nM.

For `O=C(Nc1cnc(-c2nnco2)c(Cl)c1)c1cnn(-c2cccc3ncccc23)c1C(F)(F)F` [Cpd 192, N-(5-chloro-6-(1,3,4-oxadiazol-2-yl)pyridin-3-yl)-1-(quinolin-5-yl)-5-(trifluoromethyl)-1H-pyrazole-4-carboxamide], the IC50 in test [1] came to 46 nM; in test [2], 42 nM; in test [3], 25 nM; in the test on TMD8 cells, 4570 nM; in the test with OCI-Ly3 cells, 593 nM.

As to `O=C(Nc1cnc(-n2nccn2)c(Cl)c1)c1cnn(-c2cccc3nccn23)c1C(F)(F)F` [Cpd 193, N-(5-chloro-6-(2H-1,2,3-triazol-2-yl)pyridin-3-yl)-1-(imidazo[1,2-a]pyridin-5-yl)-5-(trifluoromethyl)-1H-pyrazole-4-carboxamide], the IC50 in test [1] turned out to be 117 nM; in test [2] it was 79 nM; in test [3], 41 nM; in the test on TMD8 cells it was 3630 nM; in the test with OCI-Ly3 cells, 521 nM.

On to `O=C(Nc1cnc(-n2nccn2)c(Cl)c1)c1cnn(-c2cccn3nccc23)c1C(F)(F)F` [Cpd 197, N-(5-chloro-6-(2H-1,2,3-triazol-2-yl)pyridin-3-yl)-1-(pyrazolo[1,5-a]pyridin-4-yl)-5-(trifluoromethyl)-1H-pyrazole-4-carboxamide], for which the IC50 in test [1] came to 123 nM; in test [2] it was 85 nM; in test [3] it was 15 nM; with TMD8 cells, 7410 nM; with OCI-Ly3 cells, 295 nM.

Turning to `N#Cc1cc(NC(=O)c2cnn(-c3cccc4nccn34)c2C(F)(F)F)cnc1-n1nccn1` [Cpd 200, N-(5-cyano-6-(2H-1,2,3-triazol-2-yl)pyridin-3-yl)-1-(imidazo[1,2-a]pyridin-5-yl)-5-(trifluoromethyl)-1H-pyrazole-4-carboxamide], the IC50 in test [1] turned out to be 380 nM; in test [2] it was 282 nM; in test [3] it was 40 nM; in the test with TMD8 cells, 7410 nM; with OCI-Ly3 cells, 1390 nM.

With `O=C(Nc1cnc(-n2nccn2)c(Cl)c1)c1cnn(-c2cccc3ncc(Cl)n23)c1C(F)(F)F` [Cpd 201, N-(5-chloro-6-(2H-1,2,3-triazol-2-yl)pyridin-3-yl)-1-(3-chloroimidazo[1,2-a]pyridin-5-yl)-5-(trifluoromethyl)-1H-pyrazole-4-carboxamide], the IC50 in test [1] amounted to 117 nM; in test [2], 120 nM; in test [3], 28 nM; in the test on TMD8 cells, 3630 nM; in the test with OCI-Ly3 cells, 782 nM.

Take `O=C(Nc1cc(Cl)c(-n2nccn2)cc1F)c1cnn(-c2cncc3c(F)cccc23)c1C(F)(F)F` [Cpd 302, N-(5-chloro-2-fluoro-4-(2H-1,2,3-triazol-2-yl)phenyl)-1-(8-fluoroisoquinolin-4-yl)-5-(trifluoromethyl)-1H-pyrazole-4-carboxamide]: the IC50 was determined as 102 nM in test [1]; 59 nM in test [2]; 54 nM in test [3]; 955 nM in the test on TMD8 cells; 692 nM in the test with OCI-Ly3 cells.

On to `N#Cc1cc(NC(=O)c2cnn(-c3ccc(F)c4ncccc34)c2C(F)(F)F)cnc1-n1nccn1` [Cpd 308, N-(5-cyano-6-(2H-1,2,3-triazol-2-yl)pyridin-3-yl)-1-(8-fluoroquinolin-5-yl)-5-(trifluoromethyl)-1H-pyrazole-4-carboxamide], for which the IC50 in test [1] was determined as 219 nM; in test [2], 166 nM; in test [3], 58 nM; in the test with TMD8 cells it was 4570 nM; with OCI-Ly3 cells, 617 nM.

On to `N#Cc1cc(NC(=O)c2cnn(-c3cccc4ocnc34)c2C(F)(F)F)cnc1-n1nccn1` [Cpd 311, 1-(benzo[d]oxazol-4-yl)-N-(5-cyano-6-(2H-1,2,3-triazol-2-yl)pyridin-3-yl)-5-(trifluoromethyl)-1H-pyrazole-4-carboxamide], for which the IC50 was 34 nM in test [1]; 37 nM in test [2]; 50 nM in test [3]; 3550 nM in the test on TMD8 cells; 2320 nM in the test on OCI-Ly3 cells.

In the case of `Cc1nc(-n2nccn2)c(C#N)cc1NC(=O)c1cnn(-c2cccc3nnsc23)c1C(F)(F)F` [Cpd 314, 1-(benzo[d][1,2,3]thiadiazol-7-yl)-N-(5-cyano-2-methyl-6-(2H-1,2,3-triazol-2-yl)pyridin-3-yl)-5-(trifluoromethyl)-1H-pyrazole-4-carboxamide], the IC50 in test [1] came to 1020 nM; in test [2] it was 692 nM; in test [3] it was 39 nM; in the test on TMD8 cells, 1860 nM; in the test on OCI-Ly3 cells, 631 nM.

Regarding `N#Cc1cc(NC(=O)c2cnn(-c3cccc4scnc34)c2C(F)(F)F)cnc1-n1nccn1` [Cpd 316, 1-(benzo[d]thiazol-4-yl)-N-(5-cyano-6-(2H-1,2,3-triazol-2-yl)pyridin-3-yl)-5-(trifluoromethyl)-1H-pyrazole-4-carboxamide], the IC50 in test [1] was 251 nM; in test [2] it was 182 nM; in test [3], 37 nM; with TMD8 cells, 3090 nM; in the test on OCI-Ly3 cells, 1450 nM.

On to `N#Cc1cc(NC(=O)c2cnn(-c3ccc(N)c4ncccc34)c2C(F)(F)F)cnc1-n1nccn1` [Cpd 326, 1-(8-aminoquinolin-5-yl)-N-(5-cyano-6-(2H-1,2,3-triazol-2-yl)pyridin-3-yl)-5-(trifluoromethyl)-1H-pyrazole-4-carboxamide], for which the IC50 turned out to be 105 nM in test [1]; 89 nM in test [2]; 45 nM in test [3]; 3240 nM with TMD8 cells; 881 nM with OCI-Ly3 cells.

Consider `Cc1nc(-n2nccn2)c(C#N)cc1NC(=O)c1cnn(-c2cnc(N)c3ccccc23)c1C(F)(F)F` [Cpd 338, 1-(1-aminoisoquinolin-4-yl)-N-(5-cyano-2-methyl-6-(2H-1,2,3-triazol-2-yl)pyridin-3-yl)-5-(trifluoromethyl)-1H-pyrazole-4-carboxamide], for which the IC50 was found to be 45 nM in test [1]; 31 nM in test [2]; 58 nM in test [3]; 1440 nM in the test on TMD8 cells; 1150 nM with OCI-Ly3 cells.

In the case of `CC(O)c1ncc(-n2ncc(C(=O)Nc3cnc(-n4nccn4)c(Cl)c3)c2C(F)(F)F)c2ccsc12` (stereo not drawn) [Cpd 376, N-(5-chloro-6-(2H-1,2,3-triazol-2-yl)pyridin-3-yl)-1-(7-(1-hydroxyethyl)thieno[2,3-c]pyridin-4-yl)-5-(trifluoromethyl)-1H-pyrazole-4-carboxamide], the IC50 came out at 58 nM in test [1]; 50 nM in test [2]; 24 nM in test [3]; 1440 nM with TMD8 cells; 1070 nM in the test with OCI-Ly3 cells.

In the case of `NC(=O)c1ncc(-n2ncc(C(=O)Nc3cnc(-n4nccn4)c(Cl)c3)c2C(F)(F)F)c2ccccc12` [Cpd 387, 4-(4-((5-chloro-6-(2H-1,2,3-triazol-2-yl)pyridin-3-yl)carbamoyl)-5-(trifluoromethyl)-1H-pyrazol-1-yl)isoquinoline-1-carboxamide], the IC50 in test [1] is 141 nM; in test [2] it was 95 nM; in test [3], 30 nM; in the test with TMD8 cells, 2190 nM; in the test with OCI-Ly3 cells it was 692 nM.

Regarding `O=C(Nc1cnc(-n2nccn2)c(Cl)c1)c1cnn(-c2cc(=O)[nH]c3ccccc23)c1C(F)(F)F` [Cpd 418, N-(5-chloro-6-(2H-1,2,3-triazol-2-yl)pyridin-3-yl)-1-(2-oxo-1,2-dihydroquinolin-4-yl)-5-(trifluoromethyl)-1H-pyrazole-4-carboxamide], the IC50 in test [1] was 95 nM; in test [2] it was 71 nM; in test [3], 550 nM; in the test on TMD8 cells, 3630 nM; with OCI-Ly3 cells, 464 nM.
